Data taken from the supplement of paper PMC11208160.

experiment: recombinant UMI read abundance after kanamycin selection (control-corrected) (log10(CPM+1)); higher = more efficient recombination; extreme values may be limits of the assay; sequences stand for … in AGTGCAGAGAAAATCGGCCAGTTTTCTCTGCCTGCAGTCCGCATGCCGTGGGACCCCTTGGGTTCTAACCTGTTGCCTAGATTTATGCAGCGGACTGCCTTTCTCCCAAAGTGATAAACCGG…AGGTTGGTTTCACT; site = the 11-nt donor
Procedure, shortened: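 Values are reported as log10(CPM+1), obtained by converting sequencing counts to CPM, averaging replicates and scaling by control-derived factors. The counts came from recombinant UMIs amplified by PCR across the donor–target junction. These UMIs came from a pooled Escherichia coli screen of donor and donor-binding-loop pairs for the IS621 bridge recombinase, plated with IPTG (0.07 mM) plus kanamycin or left unselected, in two replicates each.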
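Also: IS621 bridge recombinase in Escherichia coli cells against a fixed T5 target plasmid.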

First: CGATGATCATGGACCGGTTTTCCCGGTAATCCGTATTTGAA (site CGATGATCTTT)
Second: CGATTAGCATGGACCGGTTTTCCCGGTAATCCGTATTTGCT (site CGATCATCTAG)
The “recombinant UMI read abundance (log10)” value of the first is higher: 2.86 for the first, 0 for the second.

Compared with “CGATTAGCATGGACCGGTTTTCCCGGTAATCCGTATTTGCT (site CGATTAGCTAG)”, “CGATTATCATGGACCGGTTTTCCCGGTAATCCGTATTTGAC (site CGATTATCTGT)” is higher in “recombinant UMI read abundance (log10)” value: 0 for the first, 1.98 for the second.

First: CGATTATCATGGACCGGTTTTCCCGGTAATCCGTATTTGAC (site CTAGTATCTGT)
Second: CGATTATCATGGACCGGTTTTCCCGGTAATCCGTATTTGCA (site CGATCATCTAG)
The “recombinant UMI read abundance (log10)” value of the first is higher: 1.07 for the first, 0 for the second.

Compared with “CGATTATCATGGACCGGTTTTCCCGGTAATCCGTATTTGCA (site CGATTATCTTG)”, “CGATTATCATGGACCGGTTTTCCCGGTAATCCGTATTTGTT (site CGATCATCTAG)” is lower in “recombinant UMI read abundance (log10)” value: 2.39 for the first, 0 for the second.

Compared with “CGATTATCATGGACCGGTTTTCCCGGTAATCCGTATTTGTT (site CGATTATCTAA)”, “CGATTTACATGGACCGGTTTTCCCGGTAATCCGTATTTGCT (site CGATTTACTAG)” is lower in “recombinant UMI read abundance (log10)” value: 2.45 for the first, 1.76 for the second.

Compared with “CGCAATCCATGGACCGGTTTTCCCGGTAATCCGTATTTGAG (site CGCAATCCTCT)”, “CGCACATCATGGACCGGTTTTCCCGGTAATCCGTATTTGCT (site CGAACATCTAG)” is lower in “recombinant UMI read abundance (log10)” value: 0.964 for the first, 0 for the second.

First: CGCACATCATGGACCGGTTTTCCCGGTAATCCGTATTTGCT (site CGCACATCTAG)
Second: CGCACATCATGGACCGGTTTTCCCGGTAATCCGTATTTGCT (site CGGACATCTAG)
The “recombinant UMI read abundance (log10)” value of the first is higher: 1.02 for the first, 0 for the second.

Compared with “CGCACATCATGGACCGGTTTTCCCGGTAATCCGTATTTGCT (site CGTACATCTAG)”, “CGCACTCCATGGACCGGTTTTCCCGGTAATCCGTATTTGTT (site CGCACTCCTAA)” is higher in “recombinant UMI read abundance (log10)” value: 0 for the first, 0.808 for the second.

First: CGCACTCCATGGACCGGTTTTCCCGGTAATCCGTATTTGTT (site CGGAATCCTAA)
Second: CGCATCACATGGACCGGTTTTCCCGGTAATCCGTATTTGCC (site CGCATCACTGG)
The “recombinant UMI read abundance (log10)” value of the first is lower: 0 for the first, 1.78 for the second.

Going from “CGCATCTCATGGACCGGTTTTCCCGGTAATCCGTATTTGTG (site CGCATCTCTCA)” to “CGCATGCCATGGACCGGTTTTCCCGGTAATCCGTATTTGCA (site CGCATGCCTTG)”, the “recombinant UMI read abundance (log10)” value falls from 1.83 to 0.808.

Compared with “CGCCACACATGGACCGGTTTTCCCGGTAATCCGTATTTGTA (site CACCACACTTA)”, “CGCCACACATGGACCGGTTTTCCCGGTAATCCGTATTTGTA (site CCCCACACTTA)” is lower in “recombinant UMI read abundance (log10)” value: 0.727 for the first, 0.261 for the second.

Going from “CGCCACACATGGACCGGTTTTCCCGGTAATCCGTATTTGTA (site CGCCACACTTA)” to “CGCCACACATGGACCGGTTTTCCCGGTAATCCGTATTTGTA (site CTCCACACTTA)”, the “recombinant UMI read abundance (log10)” value falls from 1.95 to 0.241.

Compared with “CGCCATACATGGACCGGTTTTCCCGGTAATCCGTATTTGCT (site CGCCATACTAG)”, “CGCCATACATGGACCGGTTTTCCCGGTAATCCGTATTTGCT (site CGCCCTACTAG)” is lower in “recombinant UMI read abundance (log10)” value: 1.64 for the first, 0.00847 for the second.

“CGCCATACATGGACCGGTTTTCCCGGTAATCCGTATTTGCT (site CGCCGTACTAG)” and “CGCCATACATGGACCGGTTTTCCCGGTAATCCGTATTTGCT (site CGCCTTACTAG)” are within 0.2 log units of each other in “recombinant UMI read abundance (log10)” value: 0 for the first, 0.046 for the second.

First: CGCCGCTCATGGACCGGTTTTCCCGGTAATCCGTATTTGCC (site CGCCGCTCTGG)
Second: CGCCTAACATGGACCGGTTTTCCCGGTAATCCGTATTTGGG (site CGCCTAACTCC)
The “recombinant UMI read abundance (log10)” value of the first is higher: 2.47 for the first, 0.0879 for the second.

“CGCGAACCATGGACCGGTTTTCCCGGTAATCCGTATTTGAT (site CGAGAACCTAT)” and “CGCGAACCATGGACCGGTTTTCCCGGTAATCCGTATTTGAT (site CGCGAACCTAT)” are the same in “recombinant UMI read abundance (log10)” value: 0 for the first, 0 for the second.

“CGCGAACCATGGACCGGTTTTCCCGGTAATCCGTATTTGAT (site CGGGAACCTAT)” and “CGCGAACCATGGACCGGTTTTCCCGGTAATCCGTATTTGAT (site CGTGAACCTAT)” are the same in “recombinant UMI read abundance (log10)” value: 0 for the first, 0 for the second.

Going from “CGCGATTCATGGACCGGTTTTCCCGGTAATCCGTATTTGGC (site CGCGATTCTGC)” to “CGCGCGCCATGGACCGGTTTTCCCGGTAATCCGTATTTGAG (site CGCGCGCCTCT)”, the “recombinant UMI read abundance (log10)” value falls from 1.61 to 0.0359.

First: CGCGGTACATGGACCGGTTTTCCCGGTAATCCGTATTTGCT (site CGCAGTACTAG)
Second: CGCGGTACATGGACCGGTTTTCCCGGTAATCCGTATTTGCT (site CGCCGTACTAG)
The “recombinant UMI read abundance (log10)” value of the first is higher: 1.64 for the first, 0 for the second.

Going from “CGCGGTACATGGACCGGTTTTCCCGGTAATCCGTATTTGCT (site CGCGGTACTAG)” to “CGCGGTACATGGACCGGTTTTCCCGGTAATCCGTATTTGCT (site CGCTGTACTAG)”, the “recombinant UMI read abundance (log10)” value falls from 1.92 to 0.467.

First: CGCGTCACATGGACCGGTTTTCCCGGTAATCCGTATTTGAC (site CGCGTCACTGT)
Second: CGCGTGTCATGGACCGGTTTTCCCGGTAATCCGTATTTGAC (site CGCGTGTCTGT)
The “recombinant UMI read abundance (log10)” value of the first is higher: 2.44 for the first, 0 for the second.

Compared with “CGCTAATCATGGACCGGTTTTCCCGGTAATCCGTATTTGCT (site CGATCATCTAG)”, “CGCTAATCATGGACCGGTTTTCCCGGTAATCCGTATTTGCT (site CGCTAATCTAG)” is higher in “recombinant UMI read abundance (log10)” value: 0 for the first, 1.97 for the second.

“CGCTACACATGGACCGGTTTTCCCGGTAATCCGTATTTGCT (site CACTACACTAG)” and “CGCTACACATGGACCGGTTTTCCCGGTAATCCGTATTTGCT (site CCCTACACTAG)” are within 0.2 log units of each other in “recombinant UMI read abundance (log10)” value: 1.32 for the first, 1.29 for the second.

First: CGCTACACATGGACCGGTTTTCCCGGTAATCCGTATTTGCT (site CGCTACACTAG)
Second: CGCTACACATGGACCGGTTTTCCCGGTAATCCGTATTTGCT (site CTCTACACTAG)
The “recombinant UMI read abundance (log10)” value of the first is higher: 2.9 for the first, 0.92 for the second.

“CGCTAGGCATGGACCGGTTTTCCCGGTAATCCGTATTTGGT (site AGCTAGGCTAC)” and “CGCTAGGCATGGACCGGTTTTCCCGGTAATCCGTATTTGGT (site CGCTAGGCTAC)” are within 0.2 log units of each other in “recombinant UMI read abundance (log10)” value: 0.0207 for the first, 0.0166 for the second.

“CGCTAGGCATGGACCGGTTTTCCCGGTAATCCGTATTTGGT (site GGCTAGGCTAC)” and “CGCTAGGCATGGACCGGTTTTCCCGGTAATCCGTATTTGGT (site TGCTAGGCTAC)” are within 0.2 log units of each other in “recombinant UMI read abundance (log10)” value: 0.00627 for the first, 0.0198 for the second.

Compared with “CGCTCAACATGGACCGGTTTTCCCGGTAATCCGTATTTGCC (site CGCTCAACTGG)”, “CGCTCATCATGGACCGGTTTTCCCGGTAATCCGTATTTGCG (site CGATCATCTAG)” is lower in “recombinant UMI read abundance (log10)” value: 0.429 for the first, 0 for the second.

Going from “CGCTCATCATGGACCGGTTTTCCCGGTAATCCGTATTTGCG (site CGCTCATCTCG)” to “CGCTCATCATGGACCGGTTTTCCCGGTAATCCGTATTTGCT (site CGATCATCTAG)”, the “recombinant UMI read abundance (log10)” value falls from 0.716 to 0.

First: CGCTCATCATGGACCGGTTTTCCCGGTAATCCGTATTTGCT (site CGCTCATCTAG)
Second: CGCTCATCATGGACCGGTTTTCCCGGTAATCCGTATTTGCT (site CGGTCATCTAG)
The “recombinant UMI read abundance (log10)” value of the first is higher: 2.6 for the first, 0 for the second.

Going from “CGCTCATCATGGACCGGTTTTCCCGGTAATCCGTATTTGCT (site CGTTCATCTAG)” to “CGCTCGACATGGACCGGTTTTCCCGGTAATCCGTATTTGTT (site CGATCGACTAA)”, the “recombinant UMI read abundance (log10)” value falls from 1.35 to 0.

“CGCTCGACATGGACCGGTTTTCCCGGTAATCCGTATTTGTT (site CGCTCGACTAA)” and “CGCTCGACATGGACCGGTTTTCCCGGTAATCCGTATTTGTT (site CGGTCGACTAA)” are the same in “recombinant UMI read abundance (log10)” value: 0 for the first, 0 for the second.

Going from “CGCTCGACATGGACCGGTTTTCCCGGTAATCCGTATTTGTT (site CGTTCGACTAA)” to “CGCTGGCCATGGACCGGTTTTCCCGGTAATCCGTATTTGCT (site CGCTGGCCTAG)”, the “recombinant UMI read abundance (log10)” value rises from 0 to 0.278.

“CGCTTGGCATGGACCGGTTTTCCCGGTAATCCGTATTTGCT (site CGATTGGCTAG)” and “CGCTTGGCATGGACCGGTTTTCCCGGTAATCCGTATTTGCT (site CGCTTGGCTAG)” are the same in “recombinant UMI read abundance (log10)” value: 0 for the first, 0 for the second.

“CGCTTGGCATGGACCGGTTTTCCCGGTAATCCGTATTTGCT (site CGGTTGGCTAG)” and “CGCTTGGCATGGACCGGTTTTCCCGGTAATCCGTATTTGCT (site CGTTTGGCTAG)” are the same in “recombinant UMI read abundance (log10)” value: 0 for the first, 0 for the second.
